Measurements as given in patent publication US20200277373A1, “ANTI-TREM2 ANTIBODIES AND METHODS OF USE THEREOF” (Denali Therapeutics Inc., priority 2017, published 2020).

Tests used:
Type in all cases: cell-based
[1] = molecular target: T1, TREM2 (Homo sapiens, UniProt Q9NZC2); experiment: Liposome stimulation pSyk AlphaLISA, HEK293 overexpressing TREM2 and DAP12; conditions: liposomes 30% lipid/70% PC (KLA 10%/90%), fold change over HBSS
T1 construct: expressed in transfected cells
Protocol: (§1) Lipids were purchased from Avanti Polar Lipids (Alabaster, Ala.) or Echelon Biosciences (Salt Lake City, Utah). Each screened lipid was resuspended in chloroform and added at 30 mole percent composition to 70 mole percent phosphatidylcholine (PC; 1,2-dioleoyl-sn-glycero-3-phosphocholine, Avanti Polar Lipids). Kdo2-Lipid A was added at a 10 mole percent composition with 90 mole percent PC. Lipid mixes were dried under nitrogen gas and resuspended in HBSS at a concentration of 4 mg/mL. Mixes were vortexed or briefly sonicated until resuspended, then bath sonicated for 1-5 minutes. Liposomes were used for 1-2 weeks. 3 independent batches of liposomes were used in experiments.
(§2) HEK293 cell lines overexpressing TREM2 and DAP12, mutant TREM2-R47H and DAP12, or DAP12 alone were plated in 96-well PDL-coated plates at a density of 40,000 cells per well and cultured for 36-48 hours until 90-100% confluent.
(§3) Cell culture medium was removed and cells were washed once with 200ul HBSS. Liposomes were diluted in HBSS in concentrations ranging from 0.03125 mg/mL to 2 mg/mL, then 50 μl was added to wells in 2-3 technical replicates per plate. Each plate contained HBSS negative control wells, 100% PC liposome control, 5 μg/mL agonist anti-TREM2 positive control (Abnova; Taiwan; # MAB2056), and 5 μg/mL mouse IgG3 isotype control (R&D Systems; Minneapolis, Minn.; # MAB007). Stimuli were incubated with cells for 5 minutes at 37° C., 5% CO2, liposomes were removed, and plates were frozen at −80° C.
(§4) Cells were lysed for 30 minutes to 1 hour on ice in 50 ul/well Cell Lysis Buffer (Cell Signaling Technology; Danvers, Mass.; #9803) with 1 mM PMSF. AlphaLISA SureFire Ultra p-Syk Tyr525/526 assay kit (PerkinElmer, ALSU-PSYK-A10OK) was used to measure pSyk levels in lysate as per manufacturer protocol. 10 μl lysate was added to 384-well OptiPlates (PerkinElmer; #6007290) and an EnVision Multilabel Plate Reader (PerkinElmer) was used to measure AlphaLISA fluorescence.
(§5) PSyk AlphaLISA fluorescence was converted to a log 2 scale. Fluorescence values from liposomes and controls were each subtracted from average fluorescence values from HBSS stimulated wells on the same plate (log 2(liposome)−log 2(HBSSave)=log 2(signal)). The result was converted back to a standard scale to measure fold change (2^log 2(signal)=fold change). Technical replicate fold changes values were averaged to obtain the fold change over background listed (pSyk FOB). Graphs represent values from independent experiments or individual human donors. Results from the screen on the HEK293 overexpressing cell lines are shown in Table 9 below and in FIG. 8A-8B. HEK293 results showing specificity for TREM2 over DAP12 expressed alone can be used to extrapolate which lipid species are likely acting as TREM2 ligands on human macrophages.

[2] = molecular target: T2, R47H TREM2 mutant (Homo sapiens, UniProt Q9NZC2, R47H); experiment: Liposome stimulation pSyk AlphaLISA, HEK293 overexpressing TREM2-R47H and DAP12; conditions: liposomes 30% lipid/70% PC (KLA 10%/90%), fold change over HBSS
T2 construct: expressed in transfected cells
T2 sequence (Q9NZC2 19-230 R47H): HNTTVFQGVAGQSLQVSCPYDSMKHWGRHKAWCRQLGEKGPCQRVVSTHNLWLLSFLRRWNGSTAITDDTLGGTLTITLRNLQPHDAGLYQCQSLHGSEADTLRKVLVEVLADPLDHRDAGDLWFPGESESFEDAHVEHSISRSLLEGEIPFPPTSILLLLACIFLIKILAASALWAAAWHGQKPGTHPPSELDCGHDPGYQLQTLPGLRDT
T2 sequence (O43914 22-113 partner): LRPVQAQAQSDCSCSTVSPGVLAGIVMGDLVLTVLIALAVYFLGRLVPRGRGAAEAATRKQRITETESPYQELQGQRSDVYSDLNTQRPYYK
Protocol: as §1, §2, §3, §4, §5

[3] = molecular target: T3, DAP12 alone (Homo sapiens, UniProt O43914); experiment: Liposome stimulation pSyk AlphaLISA, HEK293 expressing DAP12 alone; conditions: liposomes 30% lipid/70% PC (KLA 10%/90%), fold change over HBSS
T3 construct: expressed in transfected cells
T3 sequence (O43914 22-113): as the sequence (O43914 22-113 partner) above
Protocol: as §1, §2, §3, §4, §5

[4] = system: primary human macrophages; experiment: Liposome stimulation pSyk AlphaLISA, primary human macrophages; conditions: liposomes 30% lipid/70% PC (KLA 10%/90%)
Protocol: as §1
10 mL human blood was obtained from Blood Centers of the Pacific. Monocytes were extracted using RosetteSep Human Monocyte Enrichment Cocktail ([…] Technologies Inc.; Vancouver, BC; #15068) as per manufacturer protocols. Density gradient was performed with Ficoll-Paque Premium (GE Healthcare Life Sciences; Pittsburgh, Pa.; #17-5442-02). Isolated monocytes were resuspended at ˜1-1.3 million cells/mL and cultured for 5-6 days in RPMI, 10% Hyclone Fetal Bovine Serum, and penicillin/streptomycin supplemented with 50 ng/mL human M-CSF (Gibco, # PHC9501) in T175 tissue culture treated flasks. M-CSF was replenished every 2-3 days. Cells were washed once with PBS, 15 mL fresh medium was added, and cells were harvested by scraping. Cells were cultured overnight at a density of 100,000 cells per well on tissue culture treated 96-well plates supplemented with 10-25 ng/mL M-CSF.
as §3, §4, §5

T1 sequence (Q9NZC2 19-230): as the sequence (Q9NZC2 19-230 R47H) above, with H29R counted along it
T1 sequence (O43914 22-113 partner): as the sequence (O43914 22-113 partner) above

| Compound | Human TREM2 (pSyk FOB) [1] [FOB] | R47H TREM2 mutant (pSyk FOB) [2] [FOB] | DAP12 alone (pSyk FOB) [3] [FOB] | pSyk FOB [4] [FOB] |
| --- | --- | --- | --- | --- |
| CCCCCCCCCCCCCCC[C@@H](O)[C@@H](N)COP(=O)(O)O [Sphinganine-1-phosphate (SalP), Sphinganine-1-phosphate] | 3.31 | 5.32 | 1.34 | 1.08 |
| Phosphatidylserine [Phosphatidylserine (PS)] | 2.42 | 2.65 | 1.27 | 2.09 |
| Ganglioside GM1 | 4.94 | 4.93 | 0.92 | 1.52 |
| CCCCCCCCCCCCCCCCCCCCCCCCCC(=O)N[C@@H](CO[C@H]1O[C@H](CO)[C@H](O)[C@H](O)[C@H]1O)[C@H](O)[C@H](O)CCCCCCCCCCCCCC [α-galactosylceramide (KRN7000), α-galactosylceramide] | 0.79 | 0.97 | 0.85 |  |
| Dihydrosphingomyelin [Dihydrosphingomyelin (DhSM)] | 1.59 | 1.93 | 1.40 | 0.96 |
| CCCCCCCCCCCCCC(=O)O[C@H](CCCCCCCCCCC)CC(=O)O[C@@H]1[C@@H](NC(=O)C[C@@H](CCCCCCCCCCC)OC(=O)CCCCCCCCCCC)[C@H](OC[C@H]2O[C@H](OP(=O)(O)O)[C@H](NC(=O)C[C@H](O)CCCCCCCCCCC)[C@@H](OC(=O)C[C@H](O)CCCCCCCCCCC)[C@@H]2O)O[C@H](CO[C@]2(C(=O)O)C[C@@H](O[C@]3(C(=O)O)C[C@@H](O)[C@@H](O)[C@@H]([C@H](O)CO)O3)[C@@H](O)[C@@H]([C@H](O)CO)O2)[C@H]1OP(=O)(O)O [Kdo2-Lipid A (KLA), Kdo2-Lipid A] | 5.15 | 6.65 | 1.25 | 2.73 |
| CCCCCCCC/C=C\CCCCCCCC(=O)OC[C@H](COP(=O)([O-])OCC[N+](C)(C)C)OC(=O)CCCCCCC/C=C\CCCCCCCC [100% Phosphatidylcholine (PC), 1,2-dioleoyl-sn-glycero-3-phosphocholine, reference compound] | 2.01 | 2.27 | 0.86 | 1.18 |
| Diacylglycerol 38:4 [Diacylglycerol 38:4 (DG 38:4)] | 1.05 | 0.73 | 0.64 |  |
| Dihyrdoceramide [Dihyrdoceramide (DhCer)] | 1.22 | 1.47 | 0.84 |  |
| CCCCCCCCCCCCCCCC(=O)OC[C@H](COP(=O)([O-])OCC[N+](C)(C)C)OC(=O)CCCC=O [1-palmitoyl-2-(5′-oxo-valeroyl)-sn-glycero-3-phosphocholine] | 0.86 | 1.57 | 1.34 |  |
| CCCCCCCCCCCCCCC[C@@H](O)[C@@H](N)CO [Sphinganine] | 0.76 | 1.39 | 1.26 |  |
| N-Acyl-phosphatidylethanolamine [N-Acyl-phosphatidylethanolamine (NAPE)] | 0.67 | 0.94 | 0.78 |  |
| Lysophosphatidylcholine [Lysophosphatidylcholine (LPC)] | 1.26 | 1.47 | 1.14 |  |
| alkylacylglycerophosphocholine [alkylacylglycerophosphocholine (PAF)] | 1.58 | 1.41 | 0.69 |  |
